Measurements taken from patent US6011046A, “Quinone compound, its production and use as antioxidant” (Takeda Chemical Industries, Ltd., priority 1995, dated 2000).

Key:
[1] = tested on: lipoperoxide formed in the brain homogenate; test: Lipoperoxide formation inhibitory effect (thiobarbituric acid (TBA) method, brain homogenate); type: biochemical, Wistar male rats; conditions: rat cerebral cortex homogenate supernatant, 37° C., 30 minutes, pH 7.4, malondialdehyde at 532 nm
Experimental: The lipoperoxide formed in the brain homogenate was quantified by the thiobarbituric acid (TBA) method of Stocks et al. (Cli. Sci. Mol. Med. 47, 215 (1974)). The cerebral cortex was removed from Wistar male rats (10 weeks old), and homogenized in ice-cooled phosphate physiological saline buffer (40 mM KH2 PO4 /K2 HPO4, 0.142M NaCl, pH 7.4). The homogenate was centrifuged at 1,000×g for 10 minutes, and the supernatant of the homogenate was used for the experiment. A solution of the test compound in ethanol (10 μl) was added to the supernatant (1 ml), and the mixture was incubated at 37° C. for 30 minutes. The reaction was stopped by adding 35% perchloric acid solution (200 μl). The reaction mixture was centrifuged at 13,000× g for 10 minutes, and 1% thiobarbituric acid solution (250 μl) was added to the supernatant (1.0 ml). The mixture was heated at 100° C. for 15 minutes, and then the amount of malondialdehyde formed by decomposition of the lipoperoxide was determined by colorimetry (532 nm).

Na+ channel site 1 = type: binding, SD male rats; conditions: [3H]-saxitoxin 2 nM, rat forebrain homogenate, 37° C., 30 minutes
Na+ channel site 2 = tested on: Na+ channel site 2; set-up: species or system SD male rats; conditions: [3H]-batrachotoxin 2 nM, rat forebrain homogenate, 37° C., 45 minutes; read-out: IC50 (Na+ channel binding, site 2)

Row | Molecule | IC50 [1] | effect on site 1 of Na channels (Na+ channel site 1) | IC50 (Na+ channel site 2)
1 | vitamin E [reference compound] | 203 ± 43 µM | – | –
2 | CC1=C(C)C(=O)C(C[C@](C)(O)CN2CCC(c3ccccc3)CC2)=C(C)C1=O [compound (A), (S)-2-[2-Hydroxy-2-methyl-3-(4-phenylpiperidin-1-yl)propyl]-3,5,6-trimethyl-1,4-benzoquinone] | 3.5 ± 0.56 µM | no effect | 0.9 µM
